In US8097241B2, “Formulation and method for treating animal waste” (priority 2007, dated 2012):

Experiments:
[1] = Rate of disintegration of animal waste: time to a uniformly distributed suspension under magnetic stirring; parameters: species or system dog; details: about 5 g waste, 90.0 g water, stirring about 90 rpm; water alone 16 minutes
Method: 1. The selected amount of feces was weighed out with the accuracy of 10 mg. All the samples had the same mass within 200 milligrams.
2. […]
3. The mixture was mixed at specific rate (about 90 rpm) using a magnetic bar inside the solution and a magnetic stirrer. The amount of time necessary to produce a uniformly distributed suspension was measured.

[2] = Rate of malodor disappearance from dog waste stirred at 40° C.; details: oxidizing agent added to the formulation or as aqueous solution
Method: 1. The specific amount of feces was weighed (about 4.0 g; accuracy of 1 mg) out and transferred to the 200 mL beaker.
2. 100.0 g of aqueous solution containing either no additives or the selected ones weighed at the same balance (accuracy of 1 mg) was added to the beaker.
3. The sample was located on a hot plate and stirred magnetically at 40° C. in the fume hood.
4. The samples were checked for the released smell every few minutes.
50.0 mL of deionized water containing selected quantities of detergent, pH affecting agent and protease (same concentration as in the formulation divided by 50 since this is the planned dilution with water), pH affecting agent and protease • a. no additives • b. Cola Lipid (0.20 g); protease (Alcalase 3.0T, 0.008 g), sodium perborate tetrahydrate (0.012 g), citric acid (to adjust pH to about 3.0), • c. Cola Lipid (0.20 g); protease (Alcalase 3.0T, 0.008 g), sodium perborate tetrahydrate (0.012 g), sodium hydrogen carbonate (to adjust pH to about 10.0), • d. Cola Lipid (0.20 g); protease (Alcalase 3.0T, 0.008 g), 5% hydrogen peroxide (0.100 g), citric acid (to adjust pH to about 3.0) was added to 3.00 g of the dog waste. The mixtures were located in the fume hood, heated on the hot plate to 40° C. and stirred magnetically. […] The malodor of the sample “a” disappeared after about 30 minutes.

animal waste bio-burden = assay: Lowering of animal waste bio-burden: dog waste homogenised with additives, serially diluted, plated on agar, CFUs counted; type: cell-based
Method: 1. A specific amount of a dog waste weighed with the accuracy of 1 mg (usually between 3 and 7 g) was transferred into the sterilized homogenizer. In a set of experiments performed on a given day the mass of all the samples were the same within 20.0 mg.
2. All the required additives were weighed out using the same balance and introduced into a specific amount of deionized, freshly boiled (but cooled to room temperature) water (usually between 50.0 g and 100.0 g) in the sterilized Erlenmeyer flask.
3. Next, the aqueous solution of additives was transformed into the homogenizer.
4. The mixture was mixed at low (18,000 RPM) for a specific amount of time (usually 30 seconds).
5. The resulting suspension was transferred to the sterilized Erlenmeyer flask and gradually diluted 10 times in several subsequent dilution steps. Initially, 5.0 mL of the non-diluted solution was added to 45.0 mL of deionized, freshly boiled water. The Eppendorf pipettes were used for further dilutions and in each case […] of the previous sample after vortex was added to 0.900 mL of deionized, freshly boiled water in a sterile vial. Usually, 6 or 7 dilutions were performed. In every set of experiments one sample consisted of the feces and water only. All the results were measured against this sample.
6. […]
8. Next, each sample was counted to determine the number of CFUs (colony forming units).

## CCCCCCCCCCCCOS(=O)(=O)[O-].[Na+] [Sodium dodecyl sulfate, sodium dodecyl sulfate]
[1]
  Time until feces disintegration: 1 min

## CCCCCCCC/C=C\CCCCCCCC(=O)OCCOCC(OCCO)C1OCC(OCCO)C1OCCO (stereo not shown) [Tween 80, polysorbate 80]
[1]
  Time until feces disintegration: 2 min

## sodium perborate
[2]
  reduction of malodor of feces, in words: destroy the malodor very effectively
[2]; listed as Sodium perborate
  reduction of malodor of feces, in words: effectively minimizes the malodor of feces

## octoxynol [Triton X100]
[1]
  Time until feces disintegration: 4 min

## cocamidopropyl PG-dimonium chloride phosphate [Cola lipid]
Animal waste bio-burden; formulation of Table 3 against the same formulation without citric acid
  effect of added citric acid on antimicrobial activity: significantly enhanced the antimicrobial activity
Animal waste bio-burden; treating animal waste
  antimicrobial activity, comparison in words: significantly better antimicrobial activity
[1]
  Time until feces disintegration: 1 min

## O.O.O.O=BO[O-].[Na+] [sodium perborate trihydrate]
[2]
  reduction of malodor of feces, in words: significantly reduced malodours

## O=C(OO)c1cccc(Cl)c1 [metachloroperbenzoic acid (MCPBA), metachloroperbenzoic acid]
[2]
  reduction of malodor of feces, in words: destroy the malodor very effectively
